Data taken from US20160312179A1 (GLAXOSMITHKLINE INTELLECHTUAL PROPERTY (NO.2) LIMITED, priority 2013, published 2016).
Entries after “also recorded” stand apart in the source; their conditions may differ.

What was measured:
Assay type in all cases: cell-based, Chinese hamster
DG44 CHO [1] = assay: Dose response study of TCA intermediates in fed-batch shake flasks: viable cell concentration / viability; settings: for effect on cell growth / viable cell concentration after addition: dose response, all concentrations tested, compared to control culture
Description: (§1) Several TCA cycle intermediates were selected for a dose response experiment based on commercial availability, either the acid or its sodium salt were purchased from Sigma Aldrich to prepare stock solution feeds to be used in the study.
(§2) FIG. 1 summarizes the TCA cycle components tested and their location in the pathway. Table 1 summarizes the operation condition of shake flasks in the study as well as feed schedules for the dose response study.
(§3) Control shake flasks were set up every time an arm of the study started. Those control shake flasks were fed-batch cultures without addition of any TCA intermediate. All conditions tested were executed in duplicate shake flasks.
(§4) Shake flask cultures were sampled every other day to determine Total Cell Concentration (TCC), Viable Cell Concentration (VCC), cell viability, metabolite (glucose, lactate, glutamine, glutamate, and ammonia) concentration, and osmolality. The master sample was divided into cell-based assays (TCC, viability assays) and cell-free assays (metabolite concentration, osmolality). Back-up samples (cell-free supernatants) for future reference were produced by centrifuging a portion of the master sample and aliquoting 1.8 mL in Nunc cryovials which were subsequently stored at −70° C. Titer was determined on samples filtered through a 0.22 μm-filter.
(§5) TCC, VCC and viability were determined using an automated cell counter based on the trypan blue exclusion method (ViCell XR, Beckman Coulter). Samples were pre-treated with protease prior to cell counting (TripLE, Life Technologies, USA) using equal volumes of protease stock solution and culture. Incubation to allow dissociation was carried out for 20-25 minutes at 37° C. under gentle shaking Metabolites were measured using Nova Bioprofile (Nova Bioprofile 400); which operates on enzyme-based electrochemical reactions. Osmolality measurement was based on the freezing-point depression method (Advanced Instruments, Model N/A). Filtered cell-free samples were sent to the Bioanalytical Development group for antibody accumulation and binding activity determination (Biacore).

DG44 CHO [2] = assay: Dose response study in shake flasks: ammonia (NH4+) accumulation and production; settings: for effect on ammonia (NH4+) accumulation: dose response, intermediate used alone, compared to control culture
Method: as §1, with “study. Selected compounds were pyruvic acid, citric acid, α-ketoglutaric acid, fumaric acid, malic acid (or sodium salts), and oxaloacetic acid (no sodium salt available).” for “study.”
as §2, with “Oxaloacetic acid and malic acid were added to the culture to a final concentration of 5 mM, 10 mM and 15 mM. […] FIG.” for “FIG.”
as §3, §4, §5

DG44 CHO [3] = assay: DOE interaction study in shake flasks: ammonia (NH4+) accumulation and production; settings: for effect on ammonia (NH4+) generation / accumulation: single intermediate at selected concentration
Method: The experiment to test interactions of all the selected components was carried out in two blocks. Each one of the blocks was designed to contain center points and control shake flasks (batch cultures, no addition of any component). […] All conditions were run in duplicates. Shake flask cultures were sampled every other day to determine Total Cell Concentration (TCC), Viable Cell Concentration (VCC), cell viability, metabolite (glucose, lactate, glutamine, glutamate, and ammonia) concentration, and osmolality. The master sample was divided into cell-based assays (TCC, viability assays) and cell-free assays (metabolite concentration, osmolality). Back-up samples (cell-free supernatants) for future reference were produced by centrifuging a portion of the master sample and aliquoting 1.8 mL in Nunc cryovials which were subsequently stored at −70° C. Titer was determined on samples filtered through a 0.22 μm-filter. TCC, VCC and viability were determined using an automated cell counter based on the trypan blue exclusion method (ViCell XR, Beckman Coulter). Samples were pre-treated with protease prior to cell counting (TripLE, Life Technologies, USA) using equal volumes of protease stock solution and culture. Incubation to allow dissociation was carried out for 20-25 minutes at 37° C. under gentle shaking Metabolites were measured using Nova Bioprofile (Nova Bioprofile 400); which operates on enzyme-based electrochemical reactions. Osmolality measurement was based on the freezing-point depression method (Advanced Instruments, Model N/A). Filtered cell-free samples were sent to the Bioanalytical Development group for antibody accumulation and binding activity determination (Biacore).

DG44 CHO [4] = assay: Dose response study in shake flasks: cell-specific productivity
Method: as §1, with “study. Selected compounds were pyruvic acid, citric acid, α-ketoglutaric acid, fumaric acid, malic acid (or sodium salts), and oxaloacetic acid (no sodium salt available).” for “study.”
as §2, with “Oxaloacetic acid and malic acid were added to the culture to a final concentration of 5 mM, 10 mM and 15 mM. […] FIG.” for “FIG.”
as §3
as §4, with “Back-up samples (cell-free supernatants) for future reference were produced by centrifuging a portion of the master sample and aliquoting 1.8 mL in Nunc cryovials which were subsequently stored at −70° C.” left out
(§6) TCC, VCC and viability were determined using an automated cell counter based on the trypan blue exclusion method (ViCell XR, Beckman Coulter). […] Incubation to allow dissociation was carried out for 20-25 minutes at 37° C. under gentle shaking Metabolites were measured using Nova Bioprofile (Nova Bioprofile 400); which operates on enzyme-based electrochemical reactions. […]
Integral of Viable Cells was calculated using VCC data and applying the trapezoid rule following the formula,
Specific Productivity was calculated using the last titer data point divided by last calculated IVC value.

DG44 CHO [5] = assay: Dose response study in shake flasks: lactate accumulation; settings: 45 mM added to the culture
Method: as §1, with “study. Selected compounds were pyruvic acid, citric acid, α-ketoglutaric acid, fumaric acid, malic acid (or sodium salts), and oxaloacetic acid (no sodium salt available).” for “study.”
as §2, with “Oxaloacetic acid and malic acid were added to the culture to a final concentration of 5 mM, 10 mM and 15 mM. […] FIG.” for “FIG.”, “study. […]” for “study.”
Shake flask cultures were sampled every other day to determine Total Cell Concentration (TCC), Viable Cell Concentration (VCC), cell viability, metabolite (glucose, lactate, glutamine, glutamate, and ammonia) concentration, and osmolality. […] Titer was determined on samples filtered through a 0.22 μm-filter.
as §6

DG44 CHO [6] = assay: DOE interaction study in shake flasks: cell-specific productivity; settings: 20 mM, alone
Method: The experiment to test interactions of all the selected components was carried out in two blocks. Each one of the blocks was designed to contain center points and control shake flasks (batch cultures, no addition of any component). […] All conditions were run in duplicates. Shake flask cultures were sampled every other day to determine Total Cell Concentration (TCC), Viable Cell Concentration (VCC), cell viability, metabolite (glucose, lactate, glutamine, glutamate, and ammonia) concentration, and osmolality. The master sample was divided into cell-based assays (TCC, viability assays) and cell-free assays (metabolite concentration, osmolality). […] Titer was determined on samples filtered through a 0.22 μm-filter. TCC, VCC and viability were determined using an automated cell counter based on the trypan blue exclusion method (ViCell XR, Beckman Coulter). […] Incubation to allow dissociation was carried out for 20-25 minutes at 37° C. under gentle shaking Metabolites were measured using Nova Bioprofile (Nova Bioprofile 400); which operates on enzyme-based electrochemical reactions. […] Integral of Viable Cells was calculated using VCC data and applying the trapezoid rule following the formula, Specific Productivity was calculated using the last titer data point divided by last calculated IVC value.

With `O=C(O)CC(O)(CC(=O)O)C(=O)O` [citric acid] the “effect on cell growth / viable cell concentration after addition” value (DG44 CHO [1]) was “deleterious effects on culture”.
For `O=C(O)/C=C/C(=O)O` [fumaric acid], the “doses needed to stabilize ammonia production (and accumulation)” value (DG44 CHO [2]; after Day 10 of culture) was 30 mM and 45 mM, the “effect on ammonia (NH4+) accumulation” value (DG44 CHO [2]) was “only partial effect” and the “effect on ammonia (NH4+) generation / accumulation” value (DG44 CHO [3]) was “slows down”. The “effect on cell growth / viable cell concentration after addition” value (DG44 CHO [1]) was “reduced cell growth”.
`O=C(O)CC(O)C(=O)O` (stereo not shown) [malic acid] was tested, and the “effect on NH4+ accumulation or production” value (DG44 CHO [2]; 5 mM) was “not a clear effect”, the “effect on ammonia (NH4+) generation / accumulation” value (DG44 CHO [3]) was “suppress ammonia generation for a few days” and the “effect on ammonia (NH4+) generation / accumulation” value (DG44 CHO [3]; listed as malate) was “partially reduced”. For the same compound, the “decline in viability compared to control shake flasks” value (DG44 CHO [1]; 5 mM) was “no decline in viability”, the decline in viability (DG44 CHO [1]; 30 mM) was “fastest decline in viability” and the “concentrations toxic to cells” value (DG44 CHO [1]; dose response experiment) was “higher than 5 mM”. For the same compound, the “cell viability of the culture” value (DG44 CHO [1]; high concentration (15 mM and 30 mM)) was “induced loss of cell viability”.
For `O=C(O)CC(=O)C(=O)O` [oxaloacetic acid], the “effect on final cell-specific productivity” value (DG44 CHO [4]; dose response, compared to control) was “sustained cell-specific productivity values”, the “cell-specific production rate and NH4+ accumulation” value (DG44 CHO [2]; 10 mM and 15 mM) was “reduce” and the “concentrations in the culture that control ammonia and maintain cell-specific productivity” value (DG44 CHO [2]; dose response conclusion) was 5 to 15 mM. For the same compound, the “effect on ammonia (NH4+) accumulation” value (DG44 CHO [2]) was “reduction in the ammonia accumulation levels”, the “effect on ammonia (NH4+) generation / accumulation” value (DG44 CHO [3]) was “partially reduced” and the “effect on cell growth / viable cell concentration after addition” value (DG44 CHO [1]) was “did not have any deleterious effect on cell growth”.
In the case of `CC(=O)C(=O)O` [pyruvic acid], the cell-specific productivity (DG44 CHO [4]; 45 mM, control averaged 31 pg/cell/day) is reported as ~24 pg/cell/day, the “ammonia accumulated, compared to control shake flasks” value (DG44 CHO [2]; 15 mM) is reported as “slightly higher level than that found in control shake flasks” and the “effect on the reduction of ammonia” value (DG44 CHO [2]; 15 mM) is reported as “minor effect on the reduction of ammonia”. For the same compound, the “ammonia accumulated to” value (DG44 CHO [2]; 30 mM) was 8 mM, the “ammonia consumption effect lasted to culture day” value (DG44 CHO [2]; 30 mM) was 8 days and the “ammonia consumption induced up to culture day” value (DG44 CHO [2]; 45 mM added on Day 5) was 10 days. For the same compound, the final ammonia concentration (DG44 CHO [2]; 45 mM added on Day 5) was 7 mM, the “effect on ammonia (NH4+) accumulation” value (DG44 CHO [2]) was “dependent on the dose, but the effect lasts only for a few days” and the “effect on ammonia (NH4+) generation / accumulation” value (DG44 CHO [3]) was “suppress ammonia generation for a few days”. The “effect on ammonia (NH4+) generation / accumulation” value (DG44 CHO [3]; listed as pyruvate) was “partially reduced” and the lactate accumulation (DG44 CHO [5]) was “around 3 g/L”.
For `O=C(O)CCC(=O)C(=O)O` [α-ketoglutaric acid], the “reduction of the cell-specific productivity compared to the control” value (DG44 CHO [4]; used alone (FIGS. 21 and 22)) was 10-20%, the “most effective concentration to reduce production of NH4+” value (DG44 CHO [2]; 15, 30, 45 mM tested) was 45 mM and the “cell-specific NH4+ production rate” value (DG44 CHO [2]; all concentrations tested) was “reduced”. The “effect on ammonia (NH4+) accumulation” value (DG44 CHO [2]; listed as α-KG) was “reduced; also recorded: most effective”, the “effect on ammonia generation” value (DG44 CHO [3]; 20 mM, alone) was “control ammonia generation” and the “effect on ammonia (NH4+) generation / accumulation” value (DG44 CHO [3]) was “consumed”. The cell-specific productivity (DG44 CHO [6]) was ~30 pg/cell/day and the “effect on cell growth / viable cell concentration after addition” value (DG44 CHO [1]) was “cell division seems to stop”.
